Assay results: patent US8673360B2, “Compositions that enable rapid-acting and highly absorptive intranasal administration” (Shin Nippon Biomedical Laboratories, Ltd., priority 2004, dated 2014)

Columns and labels:
[1] = Intranasal administration of oxycodone in cynomolgus monkeys: plasma oxycodone by HPLC, against subcutaneous injection
[2] = Intranasal administration of tropisetron in cynomolgus monkeys: plasma tropisetron by HPLC, against intravenous injection; type: in vivo
Protocol: A single dose of an intranasal delivery composition was nasally administered to cynomolgus monkeys (body weight: 4.3 to 7.2 kg). Each composition was encapsulated and administered nasally using a device for nasal administration (Bioactis Co. Ltd.).
27.5 mg of tropisetron hydrochloride (equivalent to 25 mg of tropisetron free base) (Sigma), which is an antiemetic agent, and 72.5 mg of crystalline cellulose (Asahi Kasei: Avicel™ PH-F20) were mixed thoroughly in a mortar. The obtained tropisetron composition was prepared and 4.4 mg tropisetron hydrochloride (equivalent to 4.0 mg of tropisetron free base) per head was administered nasally to male cynomolgus monkeys weighing from 6.3 to 7.2 kg (n=3).
The injection was given intravenously to male cynomolgus monkeys weighing 6.9 and 7.2 kg (n=2), at 0.22 mg tropisetron hydrochloride (equivalent to 0.20 mg of tropisetron free base) per kg weight.
The plasma concentration of tropisetron free base after administration was determined by the HPLC method.
The time course of plasma tropisetron concentration after intravenous injection was subjected to a 2-compartment model analysis using the linear least-square method. The area under the theoretical plasma concentration vs. time curve (AUC) was determined based on the theoretical plasma tropisetron concentration calculated.

COc1ccc2c3c1O[C@H]1C(=O)CC[C@@]4(O)[C@@H](C2)N(C)CC[C@]314 [oxycodone]
Time at which the maximum plasma concentration of oxycodone was reached ([1]; intranasal, time course of plasma concentrations): 20 min
bioavailability ([1]; male, cynomolgus, cynomolgus monkey, plasma, other: intranasal, […]): 71.7%

CN1[C@@H]2CC[C@H]1C[C@@H](OC(=O)c1c[nH]c3ccccc13)C2 [tropisetron]
Time at which the maximum plasma concentration of tropisetron was achieved ([2]; intranasal, time course of average plasma concentrations): 5 min
bioavailability ([2]; male, cynomolgus monkey, plasma, other: intranasal, nasal, 4 mg/body (0.59 mg/kg), compared with intravenous injection, read-out: BA (bioavailability) of tropisetron): 73.4%
